Counter-ions that a name gives are not always drawn. Like-named read-outs stand apart in the source and are kept apart here.
Experiments:
Aqueous solubility = format: physicochemical; conditions: for solubility: aqueous
[1] = pH 7, aqueous buffer, pH 7, read-out: Aqueous solubility at pH 7

## COCC1(OP(=O)(O)O)CCN(c2c(F)cc(N3C[C@H](CNC(C)=O)OC3=O)cc2F)CC1 [Example 3, Phosphoric acid mono-(1-{4-[(S)-5-(acetylamino-methyl)-2-oxo-oxazolidin-3-yl]-2,6-difluorophenyl}-4-methoxymethyl-piperidin-4-yl)ester]
other
  melting point: > 140 °C
Aqueous solubility; pH not stated, read-out: Aqueous solubility
  solubility: > 200 mg/mL

## COCC1(OP(=O)(O)O)CCN(c2c(F)cc(N3C[C@H](CNC(C)=O)OC3=O)cc2F)CC1 [Example 6, Phosphoric acid mono-(1-{4-[(S)-5-(acetylamino-methyl)-2-oxo-oxazolidin-3-yl]-2,6-difluoro-phenyl}-4-methoxymethyl-piperidin-4-yl)ester magnesium salt]
Aqueous solubility; pH 7
  Aqueous solubility at pH 7: ~2 mg/ml

## COCC1(OP(=O)(O)O)CCN(c2c(F)cc(N3C[C@H](CNC(C)=O)OC3=O)cc2F)CC1 [Example 5, Phosphoric acid mono-(1-{4-[(S)-5-(acetylamino-methyl)-2-oxo-oxazolidin-3-yl]-2,6-difluoro-phenyl}-4-methoxymethyl-piperidin-4-yl)ester di potassium salt]
Aqueous solubility; pH 7, di potassium salt
  Aqueous solubility at pH 7: > 200 mg/ml

## COCC1(C(=O)[C@H](C)NC(=O)OC(C)(C)C)CCN(c2c(F)cc(N3C[C@H](CNC(C)=O)OC3=O)cc2F)CC1 [Example 13, (S)—N-{3-[3,5-difluoro-4-(4-(S)-2-tert-butoxycarbonylamino-propionyl-4-methoxymethyl-piperidine-1-yl)phenyl]-2-oxo-oxazolidin-5-ylmethyl}-acetamide]
Aqueous solubility; pH 7
  Aqueous solubility at pH 7: > 100 mg/ml

## COCC1(OC(=O)C(C)N)CCN(c2c(F)cc(N3C[C@H](CNC(C)=O)OC3=O)cc2F)CC1.O=C(O)C(F)(F)F (stereo partly drawn) [Example 15, 2-Amino-propionic acid 1-{4-[(S)-5-(acetylamino-methyl)-2-oxo-oxazolidin-3-yl]-2,6-difluorophenyl}-4-methoxymethyl-piperidin-4-yl ester triflouroacetic acid salt]
Aqueous solubility; pH 7
  Aqueous solubility at pH 7: > 100 mg/ml

## COCC1(OP(=O)([O-])[O-])CCN(c2c(F)cc(N3C[C@H](CNC(C)=O)OC3=O)cc2F)CC1.[Ca+2] [Example 7, Phosphoric acid mono-(1-{4-[(S)-5-(acetylamino-methyl)-2-oxo-oxazolidin-3-yl]-2,6-difluoro-phenyl}-4-methoxymethyl-piperidin-4-yl)ester calcium salt]
Aqueous solubility; [1]
  solubility: ~0.5 mg/mL

## COCC1(OP(=O)(O)O)CCN(c2c(F)cc(N3C[C@H](CNC(C)=O)OC3=O)cc2F)CC1 [Example 4, Phosphoric acid mono-(1-{4-[(S)-5-(acetylamino-methyl)-2-oxo-oxazolidin-3-yl]-2,6-difluoro-phenyl}-4-methoxymethyl-piperidin-4-yl)ester di sodium salt]
Aqueous solubility; pH 7, di sodium salt
  Aqueous solubility at pH 7: > 200 mg/ml

## COCC1(OC(=O)CN)CCN(c2c(F)cc(N3C[C@H](CNC(C)=O)OC3=O)cc2F)CC1.Cl [Example 11, 2-Amino-acetic acid 1-{4-[(S)-5-(acetylamino-methyl)-2-oxo-oxazolidin-3-yl]-2,6-difluorophenyl}-4-methoxymethyl-piperidin-4-yl ester hydrochloride salt]
Aqueous solubility; [1]
  solubility: > 100 mg/mL

## COCC1(OC(=O)C(C)N)CCN(c2c(F)cc(N3C[C@H](CNC(C)=O)OC3=O)cc2F)CC1.Cl (stereo partly drawn) [Example 14, 2-Amino-propionic acid 1-{4-[(S)-5-(acetylamino-methyl)-2-oxo-oxazolidin-3-yl]-2,6-difluorophenyl}-4-methoxymethyl-piperidin-4-yl ester hydrochloride salt]
Aqueous solubility; [1]
  solubility: > 100 mg/mL

## COCC1(C(=O)[C@@H](NC(=O)OCc2ccccc2)C(C)C)CCN(c2c(F)cc(N3C[C@H](CNC(C)=O)OC3=O)cc2F)CC1 [Example 16, (S)—N-{3-[3,5-Difluoro-4-(4-(S)-2-carbobenzyloxyamino-3,3-dimethylpropionyl-4-methoxymethyl-piperidine-1-yl)phenyl]-2-oxo-oxazolidin-5-ylmethyl}-acetamide]
Aqueous solubility; pH 7
  Aqueous solubility at pH 7: > 100 mg/ml

## COCC1(OC(=O)C(N)C(C)C)CCN(c2c(F)cc(N3C[C@H](CNC(C)=O)OC3=O)cc2F)CC1.CS(=O)(=O)O (stereo partly drawn) [Example 17, 2-Amino-3,3-dimethylpropionic acid 1-{4-[(S)-5-(acetylamino-methyl)-2-oxo-oxazolidin-3-yl]-2,6-difluorophenyl}-4-methoxymethyl-piperidin-4-yl ester methane sulfonic acid salt]
Aqueous solubility; pH 7, aqueous buffer, read-out: Aqueous solubility at pH 7
  solubility: > 100 mg/mL

## COCC1(OC(=O)CN)CCN(c2c(F)cc(N3C[C@H](CNC(C)=O)OC3=O)cc2F)CC1.O=C(O)C(F)(F)F [Example 12, 2-Amino-acetic acid 1-{4-[(S)-5-(acetylamino-methyl)-2-oxo-oxazolidin-3-yl]-2,6-difluorophenyl}-4-methoxymethyl-piperidin-4-yl ester triflouroacetic acid salt]
Aqueous solubility; pH 7
  Aqueous solubility at pH 7: > 100 mg/ml

Source: patent publication US8288416B2, “Substituted piperidinophenyl oxazolidinones” (Wockhardt Ltd., priority 2006, dated 2012)
